Test results: patent US20120165403A1, “METHODS OF INHIBITING THE ACTIVITY OF HSP90 AND/OR ARYL HYDROCARBON RECEPTOR” (UNIVERSITY OF ROCHESTER, priority 2004, published 2012)

What was measured:
purified human hsp90 = molecular target: T1, purified human hsp90 (Homo sapiens, UniProt P07900); test: Affinity chromatography on EGCG-conjugated Sepharose, purified hsp90; assay type: binding; settings: purified hsp90 alone
T1 construct: purchased Stressgen
Method: EGCG was conjugated to cyanogen bromide (CNBr)-activated Sepharose (Sigma). EGCG (2.5 mg) was dissolved in 5004 coupling buffer (0.1M NaHCO3, 0.5M NaCl, pH 6.0). CNBr-activated Sepharose was swelled and washed in 1 mM HCl on a sintered glass filter followed by a wash with coupling buffer. CNBr-activated Sepharose beads were added to the EGCG in coupling buffer at a final concentration of 5 mg EGCG/ml of wet gel. The coupling solution containing EGCG and Sepharose was mixed end-over end at 4° C. overnight. Remaining active groups were blocked for 2 h at room temperature in Tris-HCl (0.1M, pH 8). EGCG-conjugated Sepharose was washed with three cycles of alternating pH wash buffers (Buffer 1: 0.1M acetate, 0.5M NaCl, pH4.0; Buffer 2: 0.1M Tris-HCl, 0.5M NaCl, pH 8.0). EGCG-conjugated beads were then equilibrated in binding buffer (0.05M Tris-HCl, 0.15M sodium chloride, pH 7.5). The control unconjugated CNBr-activated Sepharose beads were prepared as above in the absence of EGCG.
For affinity chromatography using histidine-purified XAP2 and purified human hsp90 (Stressgen), 30 μl of unconjugated or EGCG-conjugated Sepharose were incubated for 1 h at room temperature with either 1:4 diluted ^35S-XAP2 in RRL, 30 μl of histidine purified ^35S-XAP2, 0.6 μg of purified hsp90, or 20 μl of histidine purified ^35S-XAP2 in the presence of 0.6 μg of purified hsp90. […]

AhR [1] = test: AhR protein levels by western blotting in Hepa cells; assay type: cell-based, mouse; settings: over 12 hours
Method: Hepa cells were plated onto 6-well plates at a density of 5×10^5 cells/well and incubated overnight at 37° C. […] Cells were lysed (0.2% Triton, 5 mM EDTA in PBS) and total protein quantified using the Coomassie Plus Protein Assay Reagent (Pierce, Rockford, Ill.). Protein (30 μg) was separated by SDS-PAGE (7.5% acrylamide resolving gel) and transferred to PVDF membrane (Millipore, Bedford, Mass.). Membranes were probed with antibodies recognizing CYP1A1 (Xenotech, Lenexa, Kans.), AhR (Biomol, Plymouth Meeting, Pa.) and actin (Sigma). The secondary IgG antibodies were coupled to horseradish peroxidase (Jackson Immuno Research, West Grove, Pa.). Both primary and secondary antibodies were used at a dilution of 1:5000 in TBST (50 mM Tris, 300 mM NaCl, 0.5% Tween 20, pH 7.5) containing 5% milk. Proteins were visualized by chemiluminescence (KPL, Gaithersburg, Md.).

AhR [2] = molecular target: T2, AhR (Mus musculus, UniProt P30561); test: DNA binding of in vitro translated AhR and ARNT in RRL; assay type: biochemical
T2 construct: made in house; host or cells: TNT rabbit reticulocyte lysate
T2 sequence (P30561 10-805 limits assumed): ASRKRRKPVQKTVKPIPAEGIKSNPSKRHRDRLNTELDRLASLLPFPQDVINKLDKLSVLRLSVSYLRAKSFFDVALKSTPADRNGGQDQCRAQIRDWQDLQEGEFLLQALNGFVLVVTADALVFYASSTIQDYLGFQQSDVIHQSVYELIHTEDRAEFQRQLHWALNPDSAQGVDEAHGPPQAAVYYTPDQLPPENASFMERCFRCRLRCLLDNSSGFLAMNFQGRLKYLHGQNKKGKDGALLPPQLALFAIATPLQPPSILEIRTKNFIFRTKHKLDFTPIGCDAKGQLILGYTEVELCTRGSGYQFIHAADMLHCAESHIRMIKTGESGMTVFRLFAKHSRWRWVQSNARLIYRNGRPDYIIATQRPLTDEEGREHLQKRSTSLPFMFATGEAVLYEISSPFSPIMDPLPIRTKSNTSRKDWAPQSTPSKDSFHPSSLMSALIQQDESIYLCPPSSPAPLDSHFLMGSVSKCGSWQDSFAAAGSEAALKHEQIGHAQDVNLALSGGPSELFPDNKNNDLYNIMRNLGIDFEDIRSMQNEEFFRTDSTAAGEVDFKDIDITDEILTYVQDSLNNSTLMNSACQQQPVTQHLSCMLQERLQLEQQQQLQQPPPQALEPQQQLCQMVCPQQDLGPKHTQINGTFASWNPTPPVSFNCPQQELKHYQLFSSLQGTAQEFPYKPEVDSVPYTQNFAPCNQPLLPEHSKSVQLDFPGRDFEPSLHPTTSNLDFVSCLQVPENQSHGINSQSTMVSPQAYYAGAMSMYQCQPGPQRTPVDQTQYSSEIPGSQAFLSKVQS
Source text: The data provided above implicate a model where EGCG inhibits release of hsp90 from the AhR complex. This form of hsp90 appears to maintain its interaction with XAP2 (FIG. 4). However, from the above data, it remains to be determined whether 1) the hsp90-XAP2 complex remains bound to the AhR upon EGCG treatment, 2) EGCG prevents ARNT dimerization, 3) EGCG stabilizes the receptor in a different complex upon additional treatment with TCDD, and 4) if other proteins are present in this complex. Findings from the above investigations add some useful insight into the mechanism of action of EGCG. The mouse AhR used for these studies was in vitro transcribed in rabbit reticulocyte lysate (RRL) and immunoprecipitated using an antibody specific for amino acids 12-31. Although this antibody could precipitate the latent and TCDD-activated AhR complex from RRL, it was incapable of precipitating an EGCG-treated AhR. […] Furthermore, titration of Hepa cytosol into the RRL system restored the ability to immunoprecipitate ^35S-methionine-labeled in vitro transcribed AhR. Similar discrepancies between systems were observed utilizing DNA binding as an endpoint. […] This is in direct contrast to the lack of AhR transformation by EGCG observed in Hepa cytosol (FIG. 7). […] This EGCG-induced DNA binding complex could also be attenuated upon titration of Hepa cytosol into RRL. […]

Structure (SMILES): O=C(O[C@@H]1Cc2c(O)cc(O)cc2O[C@@H]1c1cc(O)c(O)c(O)c1)c1cc(O)c(O)c(O)c1 [EGCG, epigallocatechin gallate]
- binding of purified hsp90 to EGCG-Sepharose (purified human hsp90): eluted specifically from EGCG-Sepharose
- effect on the TCDD-induced decrease of AhR levels (AhR [1]; 200 μM EGCG with 150 pM TCDD): not exacerbated or prevented
- AhR protein levels, treatment alone (AhR [1]; EGCG 200 μM or TCDD 150 pM): not capable of inducing AhR degradation
- DNA binding of AhR and ARNT, treatment alone (AhR [2]): formation of a strong DRE-AhR-ARNT shifted complex
